Data as given in publication PMC5459446, “A phase I study of single-agent perifosine for recurrent or refractory pediatric CNS and solid tumors” (PLoS ONE, 2017).
Several values for one entry are separate records, joined by “and”; a condition that tells them apart may be missing. Equal entries are not always repeated. Structures can show the parent of a compound that is named as a salt.

Experiments:
[1] = tested on: recurrent or refractory pediatric CNS and solid tumors; test: Tumor response assessment (RECIST; INRC for neuroblastoma); format: in vivo, human; parameters: key to Best Response: no response per INRC; PD: progressive disease per RECIST or INRC; SD: stable disease per RECIST; conditions: for Subjects with stable disease as best response: stable disease for 2 months
Procedure: Tumor assessments were performed approximately every 8 weeks. For subjects with tumors other than neuroblastoma, responses were assessed by the study radiologist and principal investigator (SH, ID) via the Response Evaluation Criteria in Solid Tumors (RECIST). For subjects with neuroblastoma, responses were assessed by a single investigator (BK) using the International Neuroblastoma Response Criteria (INRC).

[2] = Steady state plasma pharmacokinetics (LC/electrospray MS); format: in vivo, human
Procedure: Samples for pharmacokinetic analysis were obtained at baseline and during weeks 2 through 4 of cycle 1. At each time point, heparinized blood was collected into a plastic vacutainer to minimize adhesion of perifosine. Plasma was separated by centrifugation and stored in polypropylene cryovials at -70°C until assayed. Perifosine in plasma was measured by a validated reversed phase liquid chromatography/electrospray mass spectrometry method as developed and validated by Woo et al..

[3] = tested on: Rhabdomyosarcoma cell lines; parameters: method as in PMID 19887560, PMID 26269112; conditions: cited from earlier work
[4] = tested on: medulloblastoma cell lines; parameters: method as in PMID 19887560, PMID 26269112; conditions: cited from earlier work
[5] = tested on: mTOR pathway / autophagy; parameters: method as in PMID 19920197; conditions: doses as low as; cited from earlier work
[6] = tested on: telomerase; parameters: method as in PMID 26307677; conditions: cited from earlier work
[7] = parameters: method as in PMID 25740692; conditions: oral, adult non-tumor bearing rhesus monkeys, cerebrospinal fluid; cited from earlier work
[8] = tested on: mouse brainstem glioma model; parameters: method as in PMID 25712742; conditions: doses demonstrated to be effective in cell culture; cited from earlier work
[9] = cited from earlier work

In the case of `CCCCCCCCCCCCCCCCCCOP(=O)([O-])OC1CC[N+](C)(C)CC1` [perifosine, 1,1-Dimethyl-4-[[(octadecyloxy)hydroxyphosphinyl]oxy]-piperidinium inner salt], the Objective responses ([1]; 23 patients, all dose levels) is reported as “No objective responses”, the “Best Response” value ([1]; Patient 1, dose level 1, medulloblastoma) is reported as “PD” and the “Best Response” value ([1]; Patient 2, dose level 1, medulloblastoma) is reported as “PD”. For the same compound, the “Best Response” value ([1]; Patient 3, dose level 1, neuroblastoma) was “NR”, the “Duration of Best Response” value ([1]; Patient 3, dose level 1, neuroblastoma, NR) was 11 months and the “Best Response” value ([1]; Patient 4, dose level 2, glioblastoma) was “PD”. For the same compound, the “Best Response” value ([1]; Patient 5, dose level 2, neuroblastoma) was “NR”, the “Duration of Best Response” value ([1]; Patient 5, dose level 2, neuroblastoma, NR) was 63 months and the “Best Response” value ([1]; Patient 6, dose level 2, anaplastic astrocytoma) was “SD”. The “Duration of Best Response” value ([1]; Patient 6, dose level 2, anaplastic astrocytoma, SD) was 2 months, the “Best Response” value ([1]; Patient 7, dose level 3, glioblastoma) was “SD” and the “Duration of Best Response” value ([1]; Patient 7, dose level 3, glioblastoma, SD) was 2 months. For the same compound, the “Best Response” value ([1]; Patient 8, dose level 3, anaplastic astrocytoma) was “SD”, the “Duration of Best Response” value ([1]; Patient 8, dose level 3, anaplastic astrocytoma, SD) was 2 months and the “Best Response” value ([1]; Patient 9, dose level 3, anaplastic astrocytoma) was “SD”. For the same compound, the “Duration of Best Response” value ([1]; Patient 9, dose level 3, anaplastic astrocytoma, SD) was 2 months, the “Best Response” value ([1]; Patient 10, dose level 3, ependymoma) was “PD” and the “Best Response” value ([1]; Patient 11, dose level 3, neuroblastoma) was “NR”. The “Duration of Best Response” value ([1]; Patient 11, dose level 3, neuroblastoma, NR) was 2 months, the “Best Response” value ([1]; Patient 12, dose level 4, neuroblastoma) was “PD” and the “Best Response” value ([1]; Patient 13, dose level 4, Ewing sarcoma/PNET) was “PD”. For the same compound, the “Best Response” value ([1]; Patient 14, dose level 4, neuroblastoma) was “NR”, the “Duration of Best Response” value ([1]; Patient 14, dose level 4, neuroblastoma, NR) was 4 months and the “Best Response” value ([1]; Patient 15, dose level 4, neuroblastoma) was “NR”. The “Duration of Best Response” value ([1]; Patient 15, dose level 4, neuroblastoma, NR) was 42 months, the “Best Response” value ([1]; Patient 16, dose level 4, neuroblastoma) was “PD” and the “Best Response” value ([1]; Patient 17, dose level 4, DIPG) was “PD”. The “Best Response” value ([1]; Patient 18, dose level 5, Wilms tumor) was “PD”, the “Best Response” value ([1]; Patient 19, dose level 5, DIPG) was “PD” and the “Best Response” value ([1]; Patient 20, dose level 5, DIPG) was “SD”. For the same compound, the “Duration of Best Response” value ([1]; Patient 20, dose level 5, DIPG, SD) was 2 months, the “Best Response” value ([1]; Patient 21, dose level 5, ependymoma) was “PD” and the “Best Response” value ([1]; Patient 22, dose level 5, ependymoma) was “PD”. For the same compound, the “Best Response” value ([1]; Patient 23, dose level 5, neuroblastoma) was “PD”, the “Subjects with disease stability (no response per INRC)” value ([1]; neuroblastoma, for 2, 4, 11, 42 and 63 months) was “Five of 8” and the “Subjects with stable disease as best response” value ([1]; recurrent high-grade astrocytoma) was 4 of 5. The “Duration of prolonged stable disease” value ([1]; three subjects with neuroblastoma) was ≥ 11 months, the “Subjects with stable disease as best response” value ([1]; three subjects with recurrent DIPG) was 1 and the “Average Plasma Level (standard deviation)” value ([2]; dose level 1, target 25 mg/m^2/day, patients 1,2,3, steady state) was 6.8 (1.6) μg/mL. The “Average Plasma Level (standard deviation)” value ([2]; dose level 2, target 50 mg/m^2/day, patients 4,5,6, steady state) was 14.4 (2.5) μg/mL and 39.0 (6.8) μM, the “Average Plasma Level (standard deviation)” value ([2]; dose level 3, target 75 mg/m^2/day, patients 7-11, steady state) was 11.5 (3.1) μg/mL and 31.1 (8.5) μM and the “Average Plasma Level (standard deviation)” value ([2]; dose level 4, target 100 mg/m^2/day, patients 12-17, steady state) was 12.7 (6.1) μg/mL and 34.4 (16.5) μM. The “Average Plasma Level (standard deviation)” value ([2]; dose level 5, target 125 mg/m^2/day, patients 18-22, steady state) was 12.1 (3.5) μg/mL and 32.8 (9.5) μM, the “Steady state plasma levels” value ([2]; observed in most patients) was “above 10 μM” and the “Maintenance dose at which dose exposure plateau is reached” value ([2]; pediatric patients, steady state plasma levels) was 50 mg/m^2/day. The IC50 [3] was ~10 µM, the IC50 [4] was 25 µM and the “Lowest dose degrading mTOR pathway components and inducing autophagy” value [5] was 5 µM. The “Doses inhibiting telomerase activity” value [6] was “low micromolar”, the CNS penetration [7] was “limited” and the “Acute toxicity after convection enhanced delivery” value [8] was “no serious acute toxicities”. For the same compound, the “Dose at which dose exposure plateau was reached” value ([9]; 2 adult studies) was “higher than 100 mg/m^2/day” and the Plasma half-life [9] was “approximately 4 days”.
